What was measured:
Kif2A-MD = target: T1, Kif2A-MD (Homo sapiens, UniProt O00139); assay: malachite green phosphate release ATPase assay; format: biochemical; conditions: tubulin- or microtubule-stimulated; BRB80-based buffer pH 6.8, 1 mM MgCl2, 75 mM KCl; without DARPin
T1 construct: motor domain without most of the neck, residues 203-554, pGex-6P1, PreScission-cleaved GST fusion; 1:1 complex with tubulin; with Tubulin alpha chain (Bos taurus, brain); Tubulin beta chain (Bos taurus, brain)

Kif2A-NM = target: T2, Kif2A-NM (Homo sapiens, UniProt O00139); assay: malachite green phosphate release ATPase assay; format: biochemical; conditions: tubulin- or microtubule-stimulated; BRB80-based buffer pH 6.8, 1 mM MgCl2, 75 mM KCl; without DARPin
T2 construct: neck plus motor domain, residues 153-553, monomer, 48 kDa, His-tagged, from E. coli BL21(DE3) pLysS; studied with bovine brain tubulin (1:2 complex), crystal also holds DARPin D1; full length 706 residues; with Tubulin alpha chain (Bos taurus, brain); Tubulin beta chain (Bos taurus, brain)

[1] = target: αβ-tubulin heterodimer from bovine brain (bovine) (UniProt Q6B856); assay: not stated; Kif2A-MD with tubulin, shown in Supplementary Figure 6; method not given
[2] = target: αβ-tubulin heterodimer from bovine brain (bovine) (UniProt Q6B856); assay: SEC-SAXS; in-line Superdex 200 10/300 GL, 20 mM HEPES, 150 mM NaCl, 1 mM MgCl2, pH 7.2; 25 μM tubulin, 27 μM DARPin, 20 μM Kif2A-NM, 0.1 mM AMPPNP; 270 kDa peak; 22 °C

T2 sequence (O00139 153-553): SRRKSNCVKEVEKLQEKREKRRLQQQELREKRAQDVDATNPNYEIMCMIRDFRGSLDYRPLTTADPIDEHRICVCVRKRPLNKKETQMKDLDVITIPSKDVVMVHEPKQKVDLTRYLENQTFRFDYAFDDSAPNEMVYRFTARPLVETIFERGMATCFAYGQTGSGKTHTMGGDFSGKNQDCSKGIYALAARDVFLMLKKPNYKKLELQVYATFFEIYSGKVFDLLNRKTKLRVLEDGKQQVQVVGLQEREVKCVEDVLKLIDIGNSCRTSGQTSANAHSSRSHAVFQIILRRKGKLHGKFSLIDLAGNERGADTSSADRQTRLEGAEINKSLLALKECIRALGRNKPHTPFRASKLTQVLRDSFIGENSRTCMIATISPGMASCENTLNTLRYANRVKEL
T2 sequence (P81947 whole entry partner, the tested form may be a part): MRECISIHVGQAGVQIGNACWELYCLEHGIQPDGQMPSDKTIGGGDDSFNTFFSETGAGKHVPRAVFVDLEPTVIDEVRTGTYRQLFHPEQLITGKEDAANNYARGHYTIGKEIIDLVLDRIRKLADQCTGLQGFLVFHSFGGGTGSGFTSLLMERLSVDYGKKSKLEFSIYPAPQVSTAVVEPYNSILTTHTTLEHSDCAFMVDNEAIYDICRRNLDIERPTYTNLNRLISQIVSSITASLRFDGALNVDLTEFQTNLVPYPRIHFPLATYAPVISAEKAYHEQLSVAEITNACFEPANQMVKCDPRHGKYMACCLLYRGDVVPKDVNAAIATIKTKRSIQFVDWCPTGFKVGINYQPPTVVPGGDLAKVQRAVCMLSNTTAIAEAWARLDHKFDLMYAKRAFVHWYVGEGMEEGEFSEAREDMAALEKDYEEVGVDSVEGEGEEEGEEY
T2 sequence (Q6B856 whole entry partner, the tested form may be a part): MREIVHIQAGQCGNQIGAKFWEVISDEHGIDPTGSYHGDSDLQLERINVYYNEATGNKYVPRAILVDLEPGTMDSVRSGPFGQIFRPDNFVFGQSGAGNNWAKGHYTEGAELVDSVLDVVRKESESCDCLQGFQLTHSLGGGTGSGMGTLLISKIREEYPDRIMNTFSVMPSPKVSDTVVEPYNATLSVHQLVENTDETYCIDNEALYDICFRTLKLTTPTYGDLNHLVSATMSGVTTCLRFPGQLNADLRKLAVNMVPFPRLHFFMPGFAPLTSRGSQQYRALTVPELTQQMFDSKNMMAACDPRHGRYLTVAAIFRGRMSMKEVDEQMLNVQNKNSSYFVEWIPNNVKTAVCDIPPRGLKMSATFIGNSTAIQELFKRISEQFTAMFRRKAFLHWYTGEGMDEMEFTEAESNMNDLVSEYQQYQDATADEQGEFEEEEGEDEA
Chain of Kif2A-NM (human Kif2A neck plus motor domain, residues 153–553) (O00139 153-553): as the sequence (O00139 153-553) above
Chain of Kif2A-MD (human Kif2A motor domain without the neck, residues 203–554) (O00139 203-554): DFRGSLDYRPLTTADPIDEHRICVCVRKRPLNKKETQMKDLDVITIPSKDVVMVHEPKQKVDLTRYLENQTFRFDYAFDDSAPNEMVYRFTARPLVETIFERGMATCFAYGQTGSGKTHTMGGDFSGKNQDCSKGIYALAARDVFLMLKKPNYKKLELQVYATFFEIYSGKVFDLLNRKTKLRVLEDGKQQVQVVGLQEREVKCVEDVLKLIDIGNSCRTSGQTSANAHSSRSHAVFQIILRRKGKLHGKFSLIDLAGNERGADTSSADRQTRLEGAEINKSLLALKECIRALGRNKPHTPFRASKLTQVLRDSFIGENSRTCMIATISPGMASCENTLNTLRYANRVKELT
T1 sequence (O00139 203-554): as above
T1 sequence (P81947 whole entry partner, the tested form may be a part): as the sequence (P81947 whole entry partner, the tested form may be a part) above
T1 sequence (Q6B856 whole entry partner, the tested form may be a part): as the sequence (Q6B856 whole entry partner, the tested form may be a part) above

`Nc1ncnc2c1ncn2[C@@H]1O[C@H](COP(=O)(O)OP(=O)(O)OP(=O)(O)O)[C@@H](O)[C@H]1O` [ATP] was tested. Which ATP turnover rate (Kif2A-MD) did it give?
Its ATP turnover rate is “ATP turnover rates of Kif2A-NM (orange) and Kif2A-MD (gray) in the presence of tubulin”.

And the ATP turnover rate (Kif2A-NM)?
Its ATP turnover rate is “ATP turnover rates of Kif2A-NM (orange) and Kif2A-MD (gray) in the presence of tubulin”.

With “Kif2A-MD (human Kif2A motor domain without the neck, residues 203–554) (from UniProt O00139 203-554) (domain or fragment)” as the molecule, how does the stoichiometry N (Kif2A-MD per tubulin dimer (1:1)) [1] read?
Its stoichiometry N (Kif2A-MD per tubulin dimer (1:1)) is 1.

Which stoichiometry N (αβ-tubulin dimers per Kif2A-NM) [2] does the source give for “Kif2A-NM (human Kif2A neck plus motor domain, residues 153–553) (from UniProt O00139 153-553) (domain or fragment)” here?
Its stoichiometry N (αβ-tubulin dimers per Kif2A-NM) is 2.
